Reference: US12507703B2, “Methods, devices and compositions for preserving human milk” (The Trustees of Princeton University, priority 2023, dated 2025)
Several values for one entry are separate records, joined by “and”; a condition that tells them apart may be missing. Equal entries are not always repeated.

Test system: lipase
Test: Lipase/lipolysis assay (EnzChek Lipase Substrate, quenched BODIPY-fatty acid conjugate) on stored human milk; further: test concentration or dose not given here

SMILES	Lipase (RFU)
COc1cc2c(CCNC(C)=O)c[nH]c2cc1O [Compound 6-Hydroxymelatonin]	976.0382 RFU
CC(C)CCC[C@@H](C)[C@H]1CC[C@H]2C3=CC=C4C[C@@H](O)CC[C@]4(C)[C@H]3CC[C@]12C [Compound 7-Dehydrocholesterol]	820.8412 RFU
C[n+]1cn([C@@H]2O[C@H](CO)[C@@H](O)[C@H]2O)c2nc(N)[nH]c(=O)c21 [Compound 7-Methylguanosine, 7-Methylguanosine]	974.6149 RFU
CC(C)=CCc1c(O)c(CC=C(C)C)c2oc3c(O)cccc3c(=O)c2c1O [Compound 8-Deoxygartanin]	1168.142 RFU
CCCCCCC[C@H](O)CC(=O)CCc1ccc(O)c(OC)c1 [Compound 8-Gingerol]	724.4815 RFU
COc1c2ccoc2c(O)c2oc(=O)ccc12 [Compound 8-Hydroxybergapten]	800.3718 RFU
CCCCCCCCC[C@H](O)CC(=O)CCc1ccc(O)c(OC)c1 [Compound 10-Gingerol]	817.7781 RFU
CC(=O)C1=CC[C@H]2[C@@H]3CCC4=CC(=O)CC[C@]4(C)[C@H]3CC[C@]12C [Compound 16-Dehydroprogesterone]	1000.658 RFU
CC(=O)[C@@]1(O)CC[C@H]2[C@@H]3CC=C4C[C@@H](O)CC[C@]4(C)[C@H]3CC[C@@]21C [Compound 17a-Hydroxypregnenolone]	861.6395 RFU
C[C@]12CCC(=O)C=C1CC[C@@H]1[C@@H]2C(=O)C[C@@]2(C)[C@H]1CC[C@]2(O)C(=O)CO [Cortisone]	1233.864 RFU
c1ccc2c(c1)CCO2 [Coumaran]	980.2989 RFU
COc1cc(C)ccc1O [Creosol]	835.9293 RFU and 462.1743 RFU
O=C(/C=C/c1ccc(O)c(O)c1)O[C@H]1[C@H](O)C[C@](O)(C(=O)O)C[C@H]1O [Cryptochlorogenic acid]	1264.679 RFU
CC(=O)OC(C)(C)/C=C/C(=O)[C@](C)(O)[C@H]1[C@H](O)C[C@@]2(C)[C@@H]3CC=C4[C@H](C[C@H](O)C(=O)C4(C)C)[C@]3(C)C(=O)C[C@]12C [Cucurbitacin B]	789.0588 RFU
CC(C)(O)/C=C/C(=O)[C@](C)(O)[C@H]1[C@H](O)C[C@@]2(C)[C@@H]3CC=C4[C@@H](C[C@H](O)C(=O)C4(C)C)[C@]3(C)C(=O)C[C@]12C [Cucurbitacin D]	937.0398 RFU
CC(=O)OC(C)(C)/C=C/C(=O)[C@](C)(O)[C@H]1[C@H](O)C[C@@]2(C)[C@@H]3CC=C4[C@@H](C=C(O)C(=O)C4(C)C)[C@]3(C)C(=O)C[C@]12C [Cucurbitacin E]	641.6726 RFU
Nc1nc2c(ncn2[C@@H]2O[C@@H]3COP(=O)([O-])O[C@H]3[C@H]2O)c(=O)[nH]1.[Na+] [Cyclic GMP (sodium)]	1109.907 RFU
CC(=O)N[C@@H]1C(O)O[C@H](CO)[C@@H](O)[C@@H]1O (stereo partly drawn) [Cyclic N-Acetyl-D-mannosamine]	868.6631 RFU
O=C(O)C(F)(F)F.O=C1N[C@@H](Cc2cnc[nH]2)C(=O)N2CCC[C@@H]12 [Cyclo(his-pro) (TFA)]	956.1787 RFU
C=C(CO)C(=O)O[C@H]1CC(=C)[C@@H]2C[C@H](O)C(=C)[C@@H]2[C@H]2OC(=O)C(=C)[C@@H]21 [Cynaropicrin]	1182.791 RFU
O=c1cc(-c2ccc(O)c(O)c2)oc2cc(O[C@@H]3O[C@H](CO)[C@@H](O)[C@H](O)[C@H]3O)cc(O)c12 [Cynaroside]	1111.46 RFU
N[C@@H](CS)C(=O)NCC(=O)O.O=C(O)C(F)(F)F [Cysteinylglycine (TFA)]	954.0897 RFU

SMILES	Lipase (RFU)
Nc1ccn([C@@H]2O[C@H](COP(=O)([O-])OP(=O)([O-])OP(=O)(O)O)[C@@H](O)[C@H]2O)c(=O)n1.[Na+].[Na+] [Cytidine-5′-triphosphate (disodium)]	1141.901 RFU
O=C(O)C(O)COP(=O)(O)O [D-3-Phospho-Glyceric Acid]	875.2279 RFU
OC[C@H]1O[C@@H](O[C@H]2[C@H](O)[C@@H](O)[C@H](O)O[C@@H]2CO)[C@H](O)[C@@H](O)[C@@H]1O [D-(+)-Cellobiose]	821.3157 RFU
OC[C@H]1O[C@@](CO)(O[C@H]2O[C@H](CO)[C@@H](O)[C@H](O)[C@H]2O)[C@@H](O[C@H]2O[C@H](CO)[C@@H](O)[C@H](O)[C@H]2O)[C@@H]1O [D-(+)-Melezitose]	886.4563 RFU
O.O.OC[C@H]1O[C@H](O[C@H]2O[C@H](CO)[C@@H](O)[C@H](O)[C@H]2O)[C@H](O)[C@@H](O)[C@@H]1O [D-(+)-Trehalose dihydrate]	1045.976 RFU
OC[C@H]1O[C@H](O[C@H]2O[C@H](CO)[C@@H](O)[C@H](O)[C@H]2O)[C@H](O)[C@@H](O)[C@@H]1O [D-(+)-Trehalose]	893.2005 RFU and 909.0228 RFU
OC[C@H]1OC(O)[C@H](O)[C@@H](O)[C@@H]1O (stereo partly drawn) [D--Glucose]	992.2563 RFU
OC[C@@H](O)C(O)[C@H](O)CO [D-Arabitol]	977.3738 RFU and 986.8626 RFU
N=C(N)NCCC[C@@H](N)C(=O)O [D-Arginine]	1215.288 RFU
OC[C@H]1O[C@@H](O[C@H]2[C@H](O)[C@@H](O)[C@H](O)O[C@@H]2CO)[C@H](O)[C@@H](O)[C@@H]1O [D-Cellobiose]	785.8282 RFU
C[C@@H]1NC(=O)N[C@@H]1CCCCCC(=O)O [D-Desthiobiotin]	791.1157 RFU
CCCCCCCCCCCCCCC[C@@H](O)[C@@H](N)CO [D-Erythro-dihydrosphingosine]	1051.007 RFU
O=C(O)[C@H](O)[C@@H](O)[C@H](O)[C@H](O)CO [D-Gluconic Acid]	876.4287 RFU
N[C@@H](C(=O)O)[C@@H](O)[C@H](O)[C@H](O)CO [D-Glucosaminic Acid]	794.5821 RFU
O=C[C@H](O)[C@@H](O)[C@H](O)[C@H](O)COP(=O)([O-])[O-].[Na+].[Na+] [D-Glucose 6-phosphate (disodium salt)]	1238.699 RFU
O=P(O)(O)O[C@H]1O[C@H](CO)[C@@H](O)[C@H](O)[C@H]1O [D-Glucose-1-Phosphate]	853.7765 RFU and 929.0604 RFU
O=C[C@H](O)[C@H]1OC(=O)[C@@H](O)[C@H]1O [D-Glucuronic acid lactone]	1111.254 RFU
N[C@H](CCC(=O)O)C(=O)O [D-Glutamic Acid]	1176.72 RFU
O=C(O)C[C@@H](O)C(=O)O [D-Malic Acid]	752.7528 RFU
O=P(O)(O)O[C@H]1O[C@H](CO)[C@@H](O)[C@H](O)[C@@H]1O [D-Mannose-1-Phosphate]	1121.007 RFU
OC[C@H]1O[C@@](CO)(O[C@H]2O[C@H](CO)[C@@H](O)[C@H](O)[C@H]2O)[C@@H](O[C@H]2O[C@H](CO)[C@@H](O)[C@H](O)[C@H]2O)[C@@H]1O [D-Melezitose]	1021.506 RFU
OC[C@H]1O[C@H](OCC2O[C@@H](O)[C@H](O)[C@@H](O)[C@@H]2O)[C@H](O)[C@@H](O)[C@H]1O (stereo partly drawn) [D-Melibiose]	850.0787 RFU and 747.8737 RFU

SMILES	Lipase (RFU)
OC[C@H]1O[C@H](OC[C@H]2O[C@H](O[C@H]3[C@H](O)[C@@H](O)C(O)O[C@@H]3CO)[C@H](O)[C@@H](O)[C@@H]2O)[C@H](O)[C@@H](O)[C@@H]1O (stereo partly drawn) [D-Panose]	982.4149 RFU
O=C(CO)[C@H](O)[C@H](O)[C@H](O)CO [D-Psicose]	990.8733 RFU
OC[C@H]1O[C@H](OC[C@H]2O[C@H](O[C@]3(CO)O[C@H](CO)[C@@H](O)[C@@H]3O)[C@H](O)[C@@H](O)[C@@H]2O)[C@H](O)[C@@H](O)[C@H]1O [D-Raffinose]	981.0683 RFU
O=C1O[C@H](CO)[C@@H](O)[C@H]1O [D-Ribonolactone]	702.8507 RFU
O=C(CO)[C@@H](O)[C@@H](O)[C@H](O)CO [D-Tagatose]	939.2844 RFU
O=C(O)[C@@H](O)[C@H](O)C(=O)O [D-Tartaric Acid]	685.8128 RFU
OC1C(O)C(O)C(O)C(O)C1O [D-chiro-Inositol]	896.4132 RFU
CCCCCCCCCCCCC/C=C/[C@@H](O)[C@@H](N)CO [D-erythro-Sphingosine]	823.3956 RFU
CC(=O)Oc1c(C)c(C)c2c(c1C)CCC(C)(CCC[C@H](C)CCC[C@H](C)CCCC(C)C)O2 (stereo partly drawn) [D-α-Tocopherol acetate]	1194.717 RFU
CC1=C(C)C(=O)C(CC[C@](C)(O)CCC[C@H](C)CCC[C@H](C)CCCC(C)C)=C(C)C1=O [D-α-Tocopherylquinone]	598.2224 RFU
COc1ccc2c(c1)OC(O)C(=O)N2O (stereo not drawn) [DIMBOA]	910.6705 RFU
CCCCCCCCCCCCCCCC(=O)OC[C@H](COP(=O)([O-])OCC[N+](C)(C)C)OC(=O)CCCCCCCCCCCCCCC [DPPC]	959.6761 RFU
O=c1c(-c2ccc(O)cc2)coc2cc(O[C@@H]3O[C@H](CO)[C@@H](O)[C@H](O)[C@H]3O)ccc12 [Daidzin]	828.0829 RFU
C/C=C/C(=O)C1=C(C)C=CCC1(C)C [Damascenone]	912.4849 RFU
O=C([O-])C(O)Cc1ccc(O)c(O)c1.[Na+] (stereo not drawn) [Danshensu (sodium salt)]	948.7665 RFU
CCCCCCCCCC=O [Decyl aldehyde]	807.9785 RFU and 682.2968 RFU
COc1cc2c(cc1OC)[C@@H]1C(=O)c3ccc4c(c3O[C@@H]1CO2)C=CC(C)(C)O4 [Deguelin]	955.3932 RFU
OC[C@H]1O[C@@H](Oc2cc3c(O)cc(O)cc3[o+]c2-c2cc(O)c(O)c(O)c2)[C@H](O)[C@@H](O)[C@@H]1O.[Cl-] [Delphinidin 3-glucoside (chloride)]	843.0852 RFU
Oc1cc(O)c2cc(O)c(-c3cc(O)c(O)c(O)c3)[o+]c2c1.[Cl-] [Delphinidin (chloride)]	816.1782 RFU
Cc1cc(O)cc2c1O[C@](C)(CCC[C@H](C)CCC[C@H](C)CCCC(C)C)CC2 [Delta-Tocopherol]	1328.881 RFU
CC(=O)c1ccc2c(c1)C=CC(C)(C)O2 [Demethoxyencecalin]	1050.951 RFU
CC(C)=CCc1cc2ccc(=O)oc2cc1O [Demethylsuberosin]	917.5135 RFU
